Each structure is given as a SMILES string. Numbered stars: 1 amine (or outer) side, 2 acyl side, 3 side chain; on linkers, the order of the positions; unused ones are H or OH. Square brackets hold non-standard residues; d marks the D form. Side chains are listed from the residue outwards. Peptide text beside a SMILES is read from it. * marks the point of attachment. Phe(4-CH2SO3H) = N[C@@H](Cc1ccc(CS(=O)(=O)O)cc1)C(=O)O; sY = N[C@@H](Cc1ccc(OS(=O)(=O)O)cc1)C(=O)O; C18 diacid = O=C(O)CCCCCCCCCCCCCCCCC(=O)*; NMe1Nal = CN[C@@H](Cc1cccc2ccccc12)C(=O)O; γGlu = O=C(O)[C@H](CCC(=O)[*:2])N[*:1]; 1Nal = N[C@@H](Cc1cccc2ccccc12)C(=O)O; Hyp = O=C(O)[C@@H]1C[C@@H](O)CN1; NMeF = CN[C@@H](Cc1ccccc1)C(=O)O; NMeD = CN[C@@H](CC(=O)O)C(=O)O; NH(2-Me-phenyl) = Cc1ccccc1N*; Nle = CCCC[C@H](N)C(=O)O; AEEA = NCCOCCOCC(=O)O; CO = O=C([*:1])[*:2]; βAla = NCCC(=O)O A value given as a limit tells only on which side of the number the result lay.

In test [1] the target is T1, Gastrin/cholecystokinin type B receptor (Homo sapiens, UniProt P32239).
T1 sequence (P32239 whole entry): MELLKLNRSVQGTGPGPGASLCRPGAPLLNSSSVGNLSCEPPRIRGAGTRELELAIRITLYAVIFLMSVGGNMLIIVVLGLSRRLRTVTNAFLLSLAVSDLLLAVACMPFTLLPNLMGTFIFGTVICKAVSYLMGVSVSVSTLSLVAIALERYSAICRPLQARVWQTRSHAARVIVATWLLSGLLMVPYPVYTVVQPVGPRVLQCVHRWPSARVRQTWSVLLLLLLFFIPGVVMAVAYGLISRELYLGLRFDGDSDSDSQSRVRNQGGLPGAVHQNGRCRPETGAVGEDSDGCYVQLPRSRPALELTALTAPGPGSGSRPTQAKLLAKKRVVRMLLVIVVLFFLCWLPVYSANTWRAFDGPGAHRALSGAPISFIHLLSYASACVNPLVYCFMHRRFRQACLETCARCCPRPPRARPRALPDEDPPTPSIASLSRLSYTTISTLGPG
Nature of the test: Displacement of [125I]-CCK-8 from human CCK2R expressed in human 1321N1 cell membranes after 2 hrs by SPA assay.

In test [2] the target is T2, Cholecystokinin receptor type A (Homo sapiens, UniProt P32238).
T2 sequence (P32238 whole entry): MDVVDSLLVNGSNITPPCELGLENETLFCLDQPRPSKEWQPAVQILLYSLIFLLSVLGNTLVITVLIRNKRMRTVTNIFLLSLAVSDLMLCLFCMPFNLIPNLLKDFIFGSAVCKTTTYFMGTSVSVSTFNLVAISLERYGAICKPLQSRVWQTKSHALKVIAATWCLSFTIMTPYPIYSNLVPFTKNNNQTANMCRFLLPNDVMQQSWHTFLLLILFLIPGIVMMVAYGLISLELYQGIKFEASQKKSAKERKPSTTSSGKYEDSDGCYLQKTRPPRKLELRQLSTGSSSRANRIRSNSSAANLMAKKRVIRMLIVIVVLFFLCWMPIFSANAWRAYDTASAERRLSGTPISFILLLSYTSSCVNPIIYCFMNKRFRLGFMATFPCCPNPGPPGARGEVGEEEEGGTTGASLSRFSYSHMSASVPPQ
The experiment in a line: Agonist activity at human CCK1R expressed in human 1321N1 cells assessed as IP1 accumulation after 1 hr by HTRF assay. The format is functional, cell-based.

In test [3] the target is T1, Gastrin/cholecystokinin type B receptor. Nature of the test: Agonist activity at human CCK2R expressed in human 1321N1 cells assessed as IP1 accumulation after 1 hr by HTRF assay. Type of test: functional, cell-based.
In test [4] the target is T2, Cholecystokinin receptor type A. Nature of the test: Displacement of [125I]-CCK-8 from human CCK1R expressed in human 1321N1 cell membranes after 2 hrs by SPA assay.

Consider `CCCC[C@H](NC(=O)[C@H](Cc1c[nH]c2ccccc12)NC(=O)CCNC(=O)[C@H](CC(C)C)NC(=O)[C@H](Cc1ccc(OS(=O)(=O)O)cc1)NC(=O)[C@H](CC(=O)O)NC(=O)COCCOCCNC(=O)COCCOCCNC(=O)CC[C@H](NC(=O)CCCCCCCCCCCCCCCCC(=O)O)C(=O)O)C(=O)N[C@@H](CC(=O)O)C(=O)N[C@@H](Cc1ccccc1)C(N)=O` ({C18 diacid-γGlu-AEEA-AEEA}-D[sY]L[βAla]W[Nle]DF-NH2), for which the figures for the IC50 in test [1] and in test [4] were 0.398 nM and 219 nM, respectively. In addition, the half-maximal effective concentration (EC50) in test [2] is 117 nM; in test [3], 0.316 nM.

Take `CC(C)C[C@H](NC(=O)[C@H](Cc1ccc(OS(=O)(=O)O)cc1)NC(=O)[C@H](CC(=O)O)NC(=O)COCCOCCNC(=O)COCCOCCNC(=O)CC[C@H](NC(=O)CCCCCCCCCCCCCCCCC(=O)O)C(=O)O)C(=O)NCC(=O)N[C@@H](Cc1c[nH]c2ccccc12)C(=O)N[C@@H](Cc1ccccc1)C(=O)N(C)[C@@H](CC(=O)O)C(=O)N(C)[C@@H](Cc1ccccc1)C(N)=O` ({C18 diacid-γGlu-AEEA-AEEA}-D[sY]LGWF[NMeD][NMeF]-NH2): the negative logarithm of the IC50 (pIC50) is less than 5 in test [1] and 7.79 in test [4]. Moreover, the negative logarithm of the EC50 (pEC50) is on record as 8.79 in test [2] and less than 6 in test [3].

In the case of `CCCC[C@H](NC(=O)[C@H](Cc1ccc(OS(=O)(=O)O)cc1)NC(=O)[C@H](CC(=O)O)NC(=O)COCCOCCNC(=O)COCCOCCNC(=O)CC[C@H](NC(=O)CCCCCCCCCCCCCCCCC(=O)O)C(=O)O)C(=O)NCC(=O)N[C@@H](Cc1c[nH]c2ccccc12)C(=O)N[C@@H](CCCC)C(=O)N(C)[C@@H](CC(=O)O)C(=O)N[C@@H](Cc1cccc2ccccc12)C(N)=O` ({C18 diacid-γGlu-AEEA-AEEA}-D[sY][Nle]GW[Nle][NMeD][1Nal]-NH2), the half-inhibitory concentration (IC50) in test [1] was 115 nM; in test [4] it was 0.0794 nM. Further, the 50% effective concentration (EC50) was 0.501 nM in test [2] and 1.86 nM in test [3].

Turning to `CCCC[C@H](NC(=O)[C@H](Cc1c[nH]c2ccccc12)NC(=O)CNC(=O)[C@H](CC(C)C)NC(=O)[C@H](Cc1ccc(OS(=O)(=O)O)cc1)NC(=O)[C@H](CC(=O)O)NC(=O)COCCOCCNC(=O)COCCOCCNC(=O)CC[C@H](NC(=O)CCCCCCCCCCCCCCCCC(=O)O)C(=O)O)C(=O)N(C)[C@@H](CC(=O)O)C(=O)N(C)[C@@H](Cc1cccc2ccccc12)C(N)=O` ({C18 diacid-γGlu-AEEA-AEEA}-D[sY]LGW[Nle][NMeD][NMe1Nal]-NH2), the results for the concentration for half-maximal inhibition (IC50) in test [1] and in test [4] were 603 nM and 0.115 nM, respectively. Moreover, the EC50 is 0.501 nM in test [2] and 16.6 nM in test [3].

Turning to `CCCC[C@H](NC(=O)[C@H](Cc1ccc(OS(=O)(=O)O)cc1)NC(=O)[C@H](CC(=O)O)NC(=O)COCCOCCNC(=O)COCCOCCNC(=O)CC[C@H](NC(=O)CCCCCCCCCCCCCCCCC(=O)O)C(=O)O)C(=O)NCC(=O)N[C@@H](Cc1c[nH]c2ccccc12)C(=O)N[C@@H](CCCC)C(=O)N[C@@H](CC(=O)O)C(=O)N[C@@H](Cc1ccc(O)cc1)C(N)=O` ({C18 diacid-γGlu-AEEA-AEEA}-D[sY][Nle]GW[Nle]DY-NH2), the results for the half-maximal inhibitory concentration (IC50) in test [1] and in test [4] were 0.132 nM and 9.12 nM, respectively. For the same compound, the EC50 is 0.977 nM in test [2] and 0.324 nM in test [3].

In the case of `CCCC[C@H](NC(=O)[C@H](Cc1ccc(OS(=O)(=O)O)cc1)NC(=O)[C@H](CC(=O)O)NC(=O)COCCOCCNC(=O)COCCOCCNC(=O)CC[C@H](NC(=O)CCCCCCCCCCCCCCCCC(=O)O)C(=O)O)C(=O)NCC(=O)N[C@@H](Cc1c[nH]c2ccccc12)C(=O)N[C@@H](CCCC)C(=O)N1C[C@H](O)C[C@H]1C(=O)N[C@@H](Cc1ccccc1)C(N)=O` ({C18 diacid-γGlu-AEEA-AEEA}-D[sY][Nle]GW[Nle][Hyp]F-NH2), the IC50 was 457 nM in test [1] and 3.02 nM in test [4]. Besides, the EC50 is 1.12 nM in test [2] and 25.7 nM in test [3].

Consider `CCCC[C@H](NC(=O)[C@H](Cc1ccc(OS(=O)(=O)O)cc1)NC(=O)[C@H](CC(=O)O)NC(=O)COCCOCCNC(=O)COCCOCCNC(=O)CC[C@H](NC(=O)CCCCCCCCCCCCCCCCC(=O)O)C(=O)O)C(=O)NCC(=O)N[C@@H](Cc1c[nH]c2ccccc12)C(=O)N[C@@H](CCCC)C(=O)N[C@@H](CC(N)=O)C(=O)N[C@@H](Cc1ccccc1)C(N)=O` ({C18 diacid-γGlu-AEEA-AEEA}-D[sY][Nle]GW[Nle]NF-NH2), for which the 50% inhibitory concentration (IC50) is 309 nM in test [1] and 19.1 nM in test [4]. Further, the EC50 in test [2] was 11.7 nM; in test [3] it was 5.75 nM.

For the compound `CCCC[C@H](NC(=O)[C@H](Cc1c[nH]c2ccccc12)NC(=O)CNC(=O)[C@@H](CCCNC(=O)COCCOCCNC(=O)COCCOCCNC(=O)CC[C@H](NC(=O)CCCCCCCCCCCCCCCCC(=O)O)C(=O)O)NC(=O)Cc1ccc(O)cc1)C(=O)N(C)[C@H](CC(=O)O)C(=O)N(C)[C@@H](Cc1ccccc1)C(N)=O`, the negative-log IC50 (pIC50) in test [1] was found to be 5.08; in test [4], 9.3. Besides, the pEC50 in test [2] is reported as 10.22; in test [3], less than 6.

On to `CCCC[C@H](NC(=O)[C@H](Cc1c[nH]c2ccccc12)NC(=O)CNC(=O)[C@H](CC(C)C)NC(=O)[C@H](Cc1ccc(OS(=O)(=O)O)cc1)NC(=O)[C@H](CC(=O)O)NC(=O)COCCOCCNC(=O)COCCOCCNC(=O)CC[C@H](NC(=O)CCCCCCCCCCCCCCCCC(=O)O)C(=O)O)C(=O)N[C@@H](CC(=O)O)C(=O)N(C)[C@@H](Cc1ccccc1)C(N)=O`, for which the IC50 is 0.288 nM in test [1] and 0.0871 nM in test [4]. For the same compound, the half-maximal effective concentration (EC50) in test [2] was 0.115 nM; in test [3], 0.457 nM.

Regarding `CCCC[C@H](NC(=O)[C@H](Cc1c[nH]c2ccccc12)NC(=O)CNC(=O)[C@H](CC(C)C)NC(=O)[C@H](Cc1ccc(CS(=O)(=O)O)cc1)NC(=O)[C@H](CC(=O)O)NC(=O)COCCOCCNC(=O)COCCOCCNC(=O)CC[C@H](NC(=O)CCCCCCCCCCCCCCCCC(=O)O)C(=O)O)C(=O)N[C@@H](CC(=O)O)C(=O)N[C@@H](Cc1ccccc1)C(N)=O` ({C18 diacid-γGlu-AEEA-AEEA}-D[Phe(4-CH2SO3H)]LGW[Nle]DF-NH2), the figures for the IC50 in test [1] and in test [4] were 0.891 nM and 0.245 nM, respectively. Besides, the concentration giving a half-maximal response (EC50) was 0.0676 nM in test [2] and 0.447 nM in test [3].

Regarding `CCCC[C@H](NC(=O)[C@H](Cc1ccc(O)cc1)NC(=O)[C@H](CC(=O)O)NC(=O)COCCOCCNC(=O)COCCOCCNC(=O)CC[C@H](NC(=O)CCCCCCCCCCCCCCCCC(=O)O)C(=O)O)C(=O)NCC(=O)N[C@@H](Cc1c[nH]c2ccccc12)C(=O)N[C@@H](CCCCNC(=O)Nc1ccccc1C)C(=O)N[C@@H](CC(=O)O)C(=O)N(C)[C@@H](Cc1ccccc1)C(N)=O`, the IC50 was 759 nM in test [1] and 0.339 nM in test [4]. The figures for the concentration for a half-maximal effect (EC50) in test [2] and in test [3] were 0.107 nM and 5.01 nM, respectively.

In the case of `CCCC[C@H](NC(=O)[C@H](Cc1ccc(OS(=O)(=O)O)cc1)NC(=O)[C@H](CC(=O)O)NC(=O)COCCOCCNC(=O)COCCOCCNC(=O)CC[C@H](NC(=O)CCCCCCCCCCCCCCCCC(=O)O)C(=O)O)C(=O)NCC(=O)N[C@@H](Cc1c[nH]c2ccccc12)C(=O)N[C@@H](CCCCNC(=O)Nc1ccccc1C)C(=O)N(C)[C@@H](CC(=O)O)C(=O)N(C)[C@@H](Cc1ccccc1)C(N)=O` ({C18 diacid-γGlu-AEEA-AEEA}-D[sY][Nle]GWK([CO-NH(2-Me-phenyl)])[NMeD][NMeF]-NH2), the IC50 is greater than 10000 nM in test [1] and 0.479 nM in test [4]. Also, the EC50 in test [2] is 0.115 nM; in test [3], greater than 1000 nM.

(Values after ChEMBL document CHEMBL4368907 (J Med Chem, 2019).)
